The record followed here is US6451330B1, “High skin friction cosmetic creams with retinoids” (Unilever Home & Personal Care, USA, division of Conopco, …, priority 2000, dated 2002).

This data set can be described thus: Retinoid solubility in oil. Type of data set: physicochemical. The protocol:
Retinoid solubility in oil is determined by the following procedure. A known weight of pure retinoid in excess of the expected solubility limit in the oil is added in an oil and methanol is added to the mixture to dissolve all retinoid crystals. Nitrogen sparging is used to ensure all methanol has evaporated from the oil. Retinoid is allowed to recrystallize overnight. The sample is filtered through a 0.45 micron filter. Known dilutions of the filtrate in isopropanol are measured by UV spectroscopy at an appropriate wavelength (325 nm for retinol) and the concentration of retinoid determined against calibration standards of retinoid in isopropanol.

`CC1=C(/C=C/C(C)=C/C=C/C(C)=C/CO)C(C)(C)CCC1` [retinol]: the “SOLUBILITY, WT %” value (retinol crystals in C12-15 Alkyl benzoate) is recorded as 85 WT %; the “SOLUBILITY, WT %” value (retinol crystals in Cetiol OE) is on record as 45 WT %; the “SOLUBILITY, WT %” value (retinol crystals in Cyclomethicone) turned out to be 2.7 WT %; the “SOLUBILITY, WT %” value (retinol crystals in Dimethicone) was 0.49 WT %; the “SOLUBILITY, WT %” value (retinol crystals in Isostearyl palmitate) turned out to be 44 WT %; the “SOLUBILITY, WT %” value (retinol crystals in Mineral oil) worked out at 34.2 WT %. Under “retinol crystals in Triolein/Squalene (6:1)”, the “SOLUBILITY, WT %” value amounted to 56.4 WT %.
